# Experimental data: PubChem BioAssay (NCI)
#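 Compound exposure: 48 hours, 5 concentrations, 96-well plates. TGI is the concentration that stops growth completely.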
# What was measured:
# Assay in all cases: NCI tumour cell line growth inhibition, 48 h
# [1] = test system: EKVX NSCLC
# [2] = test system: OVCAR-8 ovarian
# [3] = test system: HCT-15 colon
# [4] = test system: K-562 leukemia
# [5] = test system: SK-OV-3 ovarian
# [6] = test system: TK-10 renal
# [7] = test system: SF-295 CNS
# [8] = test system: COLO 205 colon
# [9] = test system: UACC-62 melanoma
# [10] = test system: RXF 393 renal
# [11] = test system: LOX IMVI melanoma
# [12] = test system: SF-268 CNS
# [13] = test system: HOP-92 NSCLC
# [14] = test system: NCI-H23 lung
# [15] = test system: SK-MEL-2 melanoma
# [16] = test system: M14 melanoma
# [17] = test system: NCI/ADR-RES ovarian
# [18] = test system: 786-0 renal
# [19] = test system: UACC-257 melanoma
# [20] = test system: MDA-MB-435
# [21] = test system: CAKI-1 renal
# [22] = test system: SNB-75 CNS
# [23] = test system: OVCAR-5 ovarian
# [24] = test system: HS 578T breast
# [25] = test system: MCF7 breast
# [26] = test system: NCI-H460 lung
# [27] = test system: HT29 colon
# [28] = test system: UO-31 renal
# [29] = test system: IGROV1 ovarian
# [30] = test system: A549 NSCLC
# [31] = test system: NCI-H522 lung
# [32] = test system: SK-MEL-5 melanoma
# [33] = test system: OVCAR-3 ovarian
# [34] = test system: KM12 colon
# [35] = test system: HOP-62 NSCLC
# [36] = test system: MALME-3M melanoma
# [37] = test system: SNB-19 CNS
# [38] = test system: DU-145 prostate
# [39] = test system: SN12C renal
# [40] = test system: MOLT-4 leukemia
# [41] = test system: PC-3 prostate
# [42] = test system: ACHN renal
# [43] = test system: U251 CNS
# [44] = test system: OVCAR-4 ovarian
# [45] = test system: SK-MEL-28 melanoma
# [46] = test system: T-47D breast
# [47] = test system: MDA-MB-231 breast
# [48] = test system: SW-620 colon
# [49] = test system: NCI-H226 lung
# [50] = test system: SF-539 CNS
# [51] = test system: HCT-116 colon
# [52] = test system: SR leukemia
# [53] = test system: BT-549 breast
smiles,measurement,setting,value
O=C(CSCC(=O)N/N=C\c1ccc(-c2ccccc2)cc1)N/N=C\c1ccc(-c2ccccc2)cc1,TGI,[1],> 100 µM
same,TGI,[2],58.2 µM
same,TGI,[3],> 100 µM
same,TGI,[4],> 100 µM
same,TGI,[5],38.9 µM
same,TGI,[6],64.2 µM
same,TGI,[7],40.9 µM
same,TGI,[8],> 100 µM
same,TGI,[9],62.4 µM
same,TGI,[10],> 100 µM
same,TGI,[11],32.4 µM
same,TGI,[12],53.9 µM
same,TGI,[13],> 100 µM
same,TGI,[14],35.4 µM
same,TGI,[15],83.4 µM
same,TGI,[16],91.2 µM
same,TGI,[17],> 100 µM
same,TGI,[18],> 100 µM
same,TGI,[19],> 100 µM
same,TGI,[20],46.1 µM
same,TGI,[21],> 100 µM
same,TGI,[22],41.6 µM
same,TGI,[23],74.8 µM
same,TGI,[24],49.8 µM
same,TGI,[25],> 100 µM
same,TGI,[26],> 100 µM
same,TGI,[27],76.6 µM
same,TGI,[28],> 100 µM
same,TGI,[29],29.2 µM
same,TGI,[30],54.4 µM
same,TGI,[31],37.2 µM
same,TGI,[32],> 100 µM
same,TGI,[33],30 µM
same,TGI,[34],49.2 µM
same,TGI,[35],51.9 µM
same,TGI,[36],64.1 µM
same,TGI,[37],> 100 µM
same,TGI,[38],> 100 µM
same,TGI,[39],53.6 µM
same,TGI,[40],> 100 µM
same,TGI,[41],88.1 µM
same,TGI,[42],55.9 µM
same,TGI,[43],31.5 µM
same,TGI,[44],46.5 µM
same,TGI,[45],> 100 µM
same,TGI,[46],> 100 µM
same,TGI,[47],25.2 µM
same,TGI,[48],38.4 µM
same,TGI,[49],84.5 µM
same,TGI,[50],37.9 µM
same,TGI,[51],21.4 µM
same,TGI,[52],26.8 µM
same,TGI,[53],66.3 µM
